Among the test systems are T-47D breast; HCT-15 colon; 786-0 renal; MCF7 breast; SNB-75 CNS; NCI-H226 lung; IGROV1 ovarian; SR leukemia; SK-MEL-2 melanoma; MDA-N; UO-31 renal; UACC-62 melanoma.
Holding throughout (test): NCI tumour cell line growth inhibition, 48 h

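Method: 48-hour compound exposure of cells in 96-well plates, five concentrations, linear interpolation of endpoints. TGI: concentration producing complete growth inhibition.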 Where a SMILES comes first, the peptide text is derived from it. [ ]: non-standard residue; d: D form. pGlu = O=C1CC[CH](C(=O)O)N1; Thz = O=C(O)[CH]1CSCN1 Bounds are passed on as bounds.

In the case of `COc1ccc(/[N+]([O-])=C/c2ccc(OC(=S)S)c(OC)c2)cc1`, the TGI is 99.5 µM with T-47D breast; more than 100 µM with HCT-15 colon; more than 100 µM with 786-0 renal; more than 100 µM in the assay with MCF7 breast; 51.1 µM in the assay with SNB-75 CNS; more than 100 µM in the assay on NCI-H226 lung. Besides, the TGI in the assay with IGROV1 ovarian is more than 100 µM; with SR leukemia, 63.5 µM; in the assay on SK-MEL-2 melanoma, more than 100 µM; with MDA-N it was more than 100 µM; with UO-31 renal it was more than 100 µM; in the assay on UACC-62 melanoma, more than 100 µM.

On to `Nc1nc(Cl)cc(NCC2(CCO)CCC2)n1`, for which the TGI was more than 100 µM with T-47D breast; more than 100 µM in the assay with HCT-15 colon; more than 100 µM with 786-0 renal; more than 100 µM in the assay with MCF7 breast; more than 10 µM with SNB-75 CNS; more than 100 µM in the assay on NCI-H226 lung. The TGI with IGROV1 ovarian was more than 100 µM; in the assay with SR leukemia, more than 100 µM; in the assay with SK-MEL-2 melanoma, more than 100 µM; in the assay on MDA-N, more than 100 µM; in the assay on UO-31 renal, more than 100 µM; in the assay with UACC-62 melanoma, more than 10 µM.

As for `COc1c2c(c3c(c1OC)c(=O)c1ccccc1n3C)OCO2`, the TGI with T-47D breast, in the assay on HCT-15 colon, in the assay on 786-0 renal, in the assay with MCF7 breast, with SNB-75 CNS and in the assay on NCI-H226 lung was more than 100 µM each time. The TGI with IGROV1 ovarian, in the assay with SR leukemia, with SK-MEL-2 melanoma, in the assay on MDA-N, with UO-31 renal and in the assay on UACC-62 melanoma was more than 100 µM each time.

As to `C[C@H](Nc1nc(N)c(N=O)c(=O)n1C)C(=O)O`, the TGI in the assay on T-47D breast, with HCT-15 colon, in the assay on 786-0 renal, with MCF7 breast, with SNB-75 CNS and with NCI-H226 lung was more than 10 µM throughout. Besides, the TGI in the assay with IGROV1 ovarian, in the assay with SR leukemia, with SK-MEL-2 melanoma, in the assay on MDA-N and with UACC-62 melanoma was more than 10 µM in each case.

Consider `C(=N\c1nc2cc3sc(/N=C/c4ccccc4)nc3cc2s1)/c1ccccc1`, for which the TGI with T-47D breast is more than 100 µM; in the assay with HCT-15 colon, more than 100 µM; in the assay with 786-0 renal, more than 100 µM; in the assay with MCF7 breast, more than 100 µM; with SNB-75 CNS, more than 100 µM; with NCI-H226 lung, more than 74 µM. The TGI in the assay with IGROV1 ovarian, in the assay with SR leukemia, with SK-MEL-2 melanoma, with MDA-N, with UO-31 renal and in the assay with UACC-62 melanoma was more than 100 µM throughout.

Turning to `O=C1CCC(C(=O)N2CSCC2C(=O)O)N1` (centres undefined) ([pGlu]-[Thz]-OH; configuration not given here), the TGI in the assay on T-47D breast, in the assay on HCT-15 colon, in the assay with 786-0 renal, in the assay with MCF7 breast, with SNB-75 CNS and in the assay on NCI-H226 lung was more than 100 µM each time. In addition, the TGI in the assay with IGROV1 ovarian, with SR leukemia, in the assay with SK-MEL-2 melanoma, in the assay with MDA-N, in the assay with UO-31 renal and in the assay with UACC-62 melanoma was more than 100 µM throughout.

`COC(=O)C(Cc1c[nH]c2ccccc12)NC(=O)C(Cc1cnc[nH]1)NC(=O)C1CCC(=O)N1C(=O)OCc1ccccc1` (centres undefined): the TGI with T-47D breast, with 786-0 renal, in the assay on MCF7 breast, in the assay with SNB-75 CNS, in the assay with NCI-H226 lung and with IGROV1 ovarian was more than 100 µM throughout. Moreover, the TGI in the assay on SR leukemia, in the assay with SK-MEL-2 melanoma, in the assay with MDA-N, with UO-31 renal and in the assay with UACC-62 melanoma was more than 100 µM throughout.

On to `Cc1nc(-c2ccccc2)cn2c1nc1ccccc12`, for which the TGI was more than 24.9 µM in the assay on T-47D breast; more than 68.5 µM with HCT-15 colon; 50.9 µM in the assay with 786-0 renal; 23.4 µM in the assay with MCF7 breast; more than 52.2 µM with SNB-75 CNS; 41.1 µM with NCI-H226 lung. Also, the TGI was 57.1 µM in the assay with IGROV1 ovarian; more than 100 µM in the assay on SR leukemia; 43.5 µM in the assay on SK-MEL-2 melanoma; 43.5 µM in the assay on MDA-N; 46.5 µM with UO-31 renal; 31.7 µM in the assay with UACC-62 melanoma.

On to `Cc1ccc(S(=O)(=O)n2cc(C=O)c(-c3cn(S(=O)(=O)c4ccc(C)cc4)cc3-c3cn(S(=O)(=O)c4ccc(C)cc4)cc3C=O)c2)cc1`, for which the TGI is more than 100 µM in the assay on T-47D breast; more than 100 µM in the assay with HCT-15 colon; more than 100 µM in the assay on 786-0 renal; 87.2 µM in the assay with MCF7 breast; more than 100 µM in the assay with SNB-75 CNS; more than 100 µM with NCI-H226 lung. Also, the TGI in the assay with IGROV1 ovarian, in the assay on SR leukemia, in the assay on SK-MEL-2 melanoma, with MDA-N, in the assay on UO-31 renal and in the assay on UACC-62 melanoma was more than 100 µM each time.

Turning to `O=[N+]([O-])c1ncc(N(CCO)CCO)s1`, the TGI in the assay with T-47D breast is 81.8 µM; in the assay on HCT-15 colon, more than 100 µM; in the assay with 786-0 renal, more than 100 µM; with MCF7 breast, more than 100 µM; in the assay with SNB-75 CNS, more than 100 µM; in the assay on NCI-H226 lung, more than 100 µM. For the same compound, the TGI with SR leukemia is more than 100 µM; with SK-MEL-2 melanoma, 45.3 µM; with MDA-N, more than 100 µM; in the assay with UO-31 renal it was more than 100 µM; with UACC-62 melanoma, 43.7 µM.

As to `CCOP(=O)(CC(=O)C1CC1)OCC`, the TGI with T-47D breast, in the assay on HCT-15 colon, with 786-0 renal, in the assay on MCF7 breast, with SNB-75 CNS and with NCI-H226 lung was more than 100 µM in each case. The TGI with IGROV1 ovarian, with SR leukemia, in the assay with SK-MEL-2 melanoma, in the assay on MDA-N, in the assay with UO-31 renal and with UACC-62 melanoma was more than 100 µM in each case.

The values above are taken from PubChem BioAssay (NCI).
